# Read-outs that look alike come from different tables or passages of the source.
# Columns and labels:
# Peronospora tabacina = test: Action against Peronospora tabacina on tobacco plants
# Description: Tobacco plants (6 weeks old) were sprayed with a formulated solution of the test compound. Four days after treatment, the plants were inoculated with a sporangia suspension of the fungus, kept at high humidity for 4 to 5 days and then incubated further under a normal day/night sequence. Evaluation of the symptoms in the tests was based on the leaf surface infested with fungus. The infestation of the untreated plants corresponded to 0 % action.
# [1] = test system: Colletotrichum lagenarium; test: Action against Colletotrichum lagenarium on Cucumis sativus L., foliar application; assay type: in vivo
# [2] = test system: Colletotrichum lagenarium; test: Action against Colletotrichum lagenarium on Cucumis sativus L., soil application; assay type: in vivo
# Erysiphe graminis [3] = test: Action against Erysiphe graminis on barley (residual-protective / systemic)
# Description: Residual-protective action: Barley plants about 8 cm in height were sprayed to drip point with an aqueous spray mixture (max. 0.02 % active ingredient) and were dusted 3 to 4 days later with conidia of the fungus. The infected plants were stood in a greenhouse at 22°. Fungus infestation was generally evaluated 10 days after infection.
# Systemic action: Barley plants about 8 cm in height were watered with an aqueous spray mixture (max. 0.002 % active ingredient, based on the volume of the soil). […] The plants were dusted with conidia of the fungus 3 to 4 days later. The infected plants were stood in a greenhouse at 22°. Fungus infestation was generally evaluated 10 days after infection.
# Cercospora nicotianae = test: Action against Cercospora nicotianae on tobacco plants; assay type: in vivo
# Phytophthora infestans = assay type: in vivo
# [4] = test system: Pseudoperonospora cubensis; test: Action against Pseudoperonospora cubensis in cucumbers; assay type: in vivo
# Puccinia recondita = test: Action against Puccinia recondita in wheat
# Description: 7-day-old wheat plants were sprayed to drip point with a spray mixture prepared from a formulated active ingredient, or combination of active ingredients. After 4 days, the treated plants were infected with a conidia suspension of the fungus, and the treated plants were subsequently incubated for 2 days at a relative atmospheric humidity of 90-100% and 20 C. 10 days post-infection, the fungus infestation was assessed.
# Erysiphe graminis [5] = test: Action against Erysiphe graminis in wheat, field trials
# Description: In field trials (10 m^2), winter wheat in the growth phase was sprayed with a spray mixture prepared with a wettable powder of the active ingredient. Infection was naturally. 10 days post-infection, the fungus infestation was assessed.
# Mycosphaerella fijiensis = test: Action against Mycosphaerella fijiensis in bananas; conditions: Table 23, comp. II alone 50 g a.i. per ha
# Description: 40 banana plants in a 300 m^2 plot were sprayed at 17-19 day intervals with a spray mixture prepared with the wettable powder of the active ingredient; in total 6 times. Infection was naturally. For evaluation, the leaf infested with the fungus was measured.
# [6] = test system: Peronospora parasitica NoCo2; test: Action against Peronospora parasitica NoCo2 in Arabidopsis thaliana (Col-0), rRNA fungal probe; assay type: in vivo; conditions: Table 29, Col-0, metalaxyl alone 0.1 mg/l
# [7] = test system: Peronospora parasitica NoCo2; test: whole plant or invertebrate; assay type: in vivo; conditions: Hyaloperonospora parasitica, in Arabidopsis thaliana, read-out: Fungal Growth Inhibition % O (observed), Table 33, wt Col-0, metalaxyl 12.5 mg/l
# [8] = test system: Peronospora parasitica isolate Emwa; test: Action against Peronospora parasitica in Arabidopsis overexpressing NIM1 (lines 6E, 7C) and wild-type Ws; assay type: in vivo; conditions: Hyaloperonospora parasitica, in Arabidopsis thaliana, Table 36, wt Ws, read-out: Fungal Growth Inhibition % O (observed)
# Description: The plant lines used in this example (6E and 7C) were generated from transformation of wild-type Arabidopsis thaliana plants (ecotype Ws) with the BamHI-HindIII NIM1 genomic fragment (SEQ ID NO:1—bases 1249-5655), as described above in Example 21. The fungicides metalaxyl, fosetyl, and copper hydroxide, formulated as 25%, 80%, and 70% active ingredient (ai), respectively, with a wettable powder carrier, were applied as fine mist to leaves of three week-old transgenic Ws plants constitutively expressing the NIM1 gene. The wettable powder alone was applied as a control. Three days later, plants were inoculated with a Peronospora parasitica isolate Emwa conidial suspension (1-2×10^5 spores/ml), as described in Delaney et al. (1995). Following inoculation, plants were covered to maintain high humidity and were placed in a Percival growth chamber at 17° C. with a 14-hr day/10-hr night cycle (Uknes et al., 1993). Tissue was harvested 8 days after inoculation.
# Fungal infection progression was followed for 12 days by viewing under a dissecting microscope to score development of conidiophores (Delaney, et al. (1994); Dietrich, et al. (1994)). Lactophenoltrypan blue staining of individual leaves was carried out to observe fungal growth within leaf tissue. Fungal growth was quantified using a rRNA fungal probe obtained by PCR according to White et al. (1990; PCR Protocols: A guide to Methods and Application, 315-322) using primers NS1 and NS2 and P. parasitica EmWa DNA as templates. RNA was purified from frozen tissue by phenol/chloroform extraction following lithium chloride precipitation (Lagrimini et al, 1987: PNAS, 84: 7542-7546). Samples (7.5 μg) were separated by electrophoresis through formaldehyde agarose gels and blotted to nylon membranes (Hybond-N+, Amersham) as described by Ausbel et al. (1987). Hybridizations and washing were according to Church and Gilbert (1984, PNAS, 81: 1991-1995). Relative amounts of the transcript were determined using a Phosphor Imager (Molecular Dynamics, Sunnyvale, Calif.) following manufacturers instructions. Sample loading was normalized by probing stripped filter blots with the constitutively expressed b-tubulin Arabidopsis cDNA.
# [9] = test system: Peronospora parasitica Emwa; test: Action against Peronospora parasitica Emwa in Arabidopsis thaliana (Ws), rRNA fungal probe; assay type: in vivo; conditions: Hyaloperonospora parasitica, in Arabidopsis thaliana, Table 30, Ws, read-out: Fungal Growth Inhibition % O (observed)
# Pyricularia oryzae = assay type: in vivo
# Alternaria solani = test: Action against Alternaria solani in tomatoes in the open
# Description: Tomato plants on a 7 m^2 plot were sprayed at 7-day intervals with a spray mixture prepared wettable powder of the active ingredient; in total 9 times. Infection was naturally. For ion, the leaf infested with the fungus was measured.
# [10] = Action on crop yield of chili, field; assay type: in vivo; conditions: in vivo
# Cercospora sp. = test: Action against Cercospora sp. (leaf spot) on chili, field; assay type: in vivo; conditions: Table 17, leaves after sixth spraying, comp. II alone 100 ppm
# Colletotrichum sp. = test: Action against Colletotrichum sp. (anthracnose) on chili, field; assay type: in vivo; conditions: Table 16, chili fruits after fifth spraying, comp. II alone 100 ppm
# Description: Effects on crop yield: In a plot of land about 10 m^2 (test location: Cikampek, Java, Indonesia), chili plants were sprayed a total of 7 times at intervals of about 7 days with 500-700 liters of spray mixture per hectare. Three days after the first spraying, the plants were infected artificially with the fungus.
compound,measurement,setting,value
"COc1ccc(C(=CC(=O)N2CCOCC2)c2ccc(Cl)cc2)cc1OC [dimethomorph, 4-[3-(4-chlorophenyl)-3-(3,4-dimethoxyphenyl)acryloyl]morpholine]",% action O (observed),"Peronospora tabacina; Table 28, comp. II alone 0.3 ppm",52%
same,% action O (observed),"Peronospora tabacina; Table 28, comp. II alone 1 ppm",52%
O=C(O)c1cccc2nnsc12 [benzothiadiazole-7-carboxylic acid],% action O (observed),"[1]; Table 4, comp. I alone 0.2 ppm",5%
same,% action O (observed),"[1]; Table 4, comp. I alone 2 ppm",22%
same,% action O (observed),"[1]; Table 6, comp. I alone 0.2 ppm",3%
same,% action O (observed),"[1]; Table 6, comp. I alone 0.6 ppm",51%
same,% action O (observed),"[1]; Table 7, comp. I alone 0.06 ppm",16%
same,% action O (observed),"[1]; Table 7, comp. I alone 0.2 ppm",22%
same,% action O (observed),"[1]; Table 7, comp. I alone 6 ppm",60%
same,% action O (observed),"[2]; Table 5, comp. I alone 0.006 ppm",0%
same,% action O (observed),"[2]; Table 5, comp. I alone 0.02 ppm",40%
same,% action O (observed),"[2]; Table 5, comp. I alone 0.06 ppm",49%
same,% action O (observed),"[2]; Table 5, comp. I alone 0.2 ppm",91%
same,% action O (observed),"Erysiphe graminis [3]; Table 1, comp. I alone 0.6 ppm",0%
same,% action O (observed),"Erysiphe graminis [3]; Table 1, comp. I alone 2 ppm",40%
same,% action O (observed),"Erysiphe graminis [3]; Table 1, comp. I alone 6 ppm",89%
same,% action O (observed),"Erysiphe graminis [3]; Table 2, comp. I alone 0.6 ppm",14%
same,% action O (observed),"Erysiphe graminis [3]; Table 2, comp. I alone 2 ppm",27%
same,% action O (observed),"Cercospora nicotianae; Table 11, comp. I alone 0.2 kg a.i. per ha",0%
same,% action O (observed),"Cercospora nicotianae; Table 11, comp. I alone 0.6 kg a.i. per ha",3%
same,% action O (observed),"Cercospora nicotianae; Table 11, comp. I alone 2 kg a.i. per ha",69%
same,% action O (observed),"Cercospora nicotianae; Table 11, comp. I alone 6 kg a.i. per ha",79%
same,% action O (observed),"Cercospora nicotianae; Table 12, comp. I alone 2 kg a.i. per ha",69%
same,% action O (observed),"Cercospora nicotianae; Table 12, comp. I alone 6 kg a.i. per ha",79%
same,% action O (observed),"Cercospora nicotianae; Table 12, comp. I alone 20 kg a.i. per ha",100%
same,% action O (observed),"Phytophthora infestans; Table 26, comp. I alone 0.1 mg a.i. per liter",0%
same,% action O (observed),"Phytophthora infestans; Table 26, comp. I alone 0.5 mg a.i. per liter",9%
same,% action O (observed),"Phytophthora infestans; Table 26, comp. I alone 1 mg a.i. per liter",22%
same,% action O (observed),"Phytophthora infestans; Table 26, comp. I alone 5 mg a.i. per liter",45%
same,% action O (observed),"[4]; Table 27, comp. I alone 0.05 mg a.i. per liter",0%
same,% action O (observed),"[4]; Table 27, comp. I alone 0.5 mg a.i. per liter",6%
same,% action O (observed),"[4]; Table 27, comp. I alone 5 mg a.i. per liter",66%
same,% action O (observed),"Puccinia recondita; Table 20, comp. I alone 6 kg a.i. per ha",20%
same,% action O (observed),"Puccinia recondita; Table 20, comp. I alone 20 kg a.i. per ha",40%
"CCCC1COC(Cn2cncn2)(c2ccc(Cl)cc2Cl)O1 (stereo not drawn) [propiconazole, 1-[2-(2,4-dichlorophenyl)-4-propyl-1,3-dioxolan-2-ylmethyl]-1H-1,2,4-triazole]",% action O (observed),"Erysiphe graminis [5]; Table 21, comp. II alone 50 g a.i. per ha",2%
same,% action O (observed),"Erysiphe graminis [5]; Table 21, comp. II alone 100 g a.i. per ha",31%
same,% action O (observed),Mycosphaerella fijiensis,26%
same,% action O (observed),"Puccinia recondita; Table 19, comp. II alone 5 mg a.i. per liter",10%
COCC(=O)N(c1c(C)cccc1C)C(C)C(=O)OC (racemic) [metalaxyl],inhibition at 0.1 µg/mL,"[6]; Hyaloperonospora parasitica, in Arabidopsis thaliana, read-out: Fungal Growth Inhibition % O (observed)",0%
same,Fungal Growth Inhibition % O (observed),[6],no fungal growth inhibition
same,inhibition at 12.5 µg/mL,[7],52.7%
same,inhibition at 1.2 µg/mL,[8]; metalaxyl 0.0012 g/l,27%
same,inhibition at 12.5 µg/mL,[8]; metalaxyl 0.0125 g/l,59%
same,% action O (observed),"Phytophthora infestans; Table 25, comp. II alone 0.1 mg a.i. per liter",13%
same,% action O (observed),"Phytophthora infestans; Table 25, comp. II alone 1 mg a.i. per liter",23%
same,% action O (observed),"Phytophthora infestans; Table 25, comp. II alone 10 mg a.i. per liter",35%
same,% action O (observed),"Phytophthora infestans; Table 25, comp. II alone 50 mg a.i. per liter",68%
same,% action O (observed),"Phytophthora infestans; Table 26, comp. II alone 1 mg a.i. per liter",13%
same,% action O (observed),"Phytophthora infestans; Table 26, comp. II alone 10 mg a.i. per liter",33%
same,% action O (observed),"Phytophthora infestans; Table 26, comp. II alone 50 mg a.i. per liter",63%
same,% action O (observed),"Phytophthora infestans; Table 26, comp. II alone 100 mg a.i. per liter",83%
same,% action O (observed),"[4]; Table 27, comp. II alone 0.5 mg a.i. per liter",31%
same,% action O (observed),"[4]; Table 27, comp. II alone 5 mg a.i. per liter",66%
same,% action O (observed),"[4]; Table 27, comp. II alone 50 mg a.i. per liter",91%
same,inhibition at 0.1 µg/mL,[9]; metalaxyl alone 0.1 mg/l,50%
same,inhibition at 0.5 µg/mL,[9]; metalaxyl alone 0.5 mg/l,50%
same,inhibition at 2.5 µg/mL,[9]; metalaxyl alone 2.5 mg/l,75%
"O=C1CCc2cccc3c2N1CC3 [Compound IIJ, 1,2,5,6-tetrahydro-4H-pyrrolo[3,2,1-ij]quinolin-4-one]",% action O (observed),"Pyricularia oryzae; Table 14, comp. II alone 0.75 kg a.i. per ha",46%
same,% action O (observed),"Pyricularia oryzae; Table 14, comp. II alone 1.5 kg a.i. per ha",82%
"Cc1cc(C2CC2)nc(Nc2ccccc2)n1 [cyprodinil, 4-cyclopropyl-6-methyl-N-phenyl-2-pyrimidinamine]",% action O (observed),"Erysiphe graminis [5]; Table 22, comp. II alone 50 g a.i. per ha",2%
same,% action O (observed),"Erysiphe graminis [5]; Table 22, comp. II alone 100 g a.i. per ha",31%
same,% action O (observed),"Alternaria solani; Table 24, comp. II alone 12.5 g a.i. per ha",30%
same,% action O (observed),"Alternaria solani; Table 24, comp. II alone 25 g a.i. per ha",51%
manganese ethylenebis(dithiocarbamate)polymer-zinc complex [mancozeb],Crop yield in kg per hectare O (observed),[10],8 kg per hectare
same,% action O (observed),Cercospora sp.,8%
same,% action O (observed),Colletotrichum sp.,12%

# Reference: patent publication US20020133846A1, “Method for protecting plants” (priority 1996, published 2002)
